Nine compounds from paper PMC5488175, “A New Methodology for Incorporating Chiral Linkers into Stapled Peptides” (Chembiochem, 2017) can be followed below.

The nature of series [1]: Circular dichroism helicity. The series is classed as physicochemical. Conditions: CD, MRE222 vs theoretical maximum; PBS (50 mM)/acetonitrile 95:5, pH 7.4, 20 °C; average of three scans. The protocol: Each purified peptide was dissolved in phosphate buffer (PBS; 50 mM)/acetonitrile (95:5, pH 7.4) and its circular dichroism spectrum was recorded.
Circular dichroism: CD spectra were obtained on a Chirascan CD spectrometer at 20 °C (1 mm path length, 260–190 nm, bandwidth 1.0 nm, response time 0.5 s, step resolution 1.0 nm) Each spectrum is the average of three scans. Peptides were dissolved in PBS (50 mM)/acetonitrile (95:5, pH 7.4) at 20 °C. The helicity was calculated as previously reported19b by comparing mean residue ellipticity at 222 nm (MRE222) to the theoretical maximum as calculated from the formula [Eq. (1), n=number of amino acid residues] described by Forood et al.21 (1) MRE222=-40000×(1-2.5/n)
Spectra were obtained at several concentrations ([…]).
For orientation: CD spectra are sensitive to the conformation of chiral molecules.

The test system of the next series is α-chymotrypsin. Kind of series: Serum stability assay: incubation with α‐chymotrypsin. It counts as in vitro ADME. The note with it: α-chymotrypsin (0.5 μg/mL) in PBS, α-chymotrypsin 0.5 μg mL−1 in PBS, peptide 0.3 mM from DMSO stock, RT, HPLC 220 nm vs caffeine internal standard, duplicate, read-out: peptide remaining intact after 6 h of incubation with α‐chymotrypsin. The protocol: Serum stability assay: Each peptide was dissolved in PBS (300 μL) from a DMSO stock to a final concentration of 0.3 mM. This PBS contained α‐chymotrypsin (0.5 μg mL^−1) and caffeine as an internal standard. Peptides were incubated at RT, and at each time point, an aliquot (30 μL) of the mixture was removed, snap frozen, thawed and centrifuged, and the supernatant was analysed by HPLC. Peptide degradation was monitored by comparing the integration of the peptide peak against the internal standard at […]. Experiments were performed in duplicate.

Compound `CC(=O)N[C@@H](CCC(=O)O)C(=O)N[C@H](C(=O)N[C@@H](Cc1ccccc1)C(=O)N[C@@]1(C)CCCC=CCCC[C@@H](OC(=O)[C@@H](N)CCCCN)c2cn(nn2)CC[C@@H](C(=O)N[C@@H](CCC(=O)O)C(=O)N[C@@H](CC(N)=O)C(N)=O)NC(=O)[C@H](CC(C)C)NC(=O)[C@H](CC(C)C)NC(=O)[C@H](CCCNC(=N)N)NC(=O)[C@H](Cc2c[nH]c3ccccc23)NC(=O)[C@H](CC(C)C)NC(=O)[C@H](CC(=O)O)NC1=O)[C@@H](C)O` [SP2 (B)] yielded a Helicity in series [1] of 35%.
In turn, `C=CCCC[C@](C)(NC(=O)[C@H](Cc1ccccc1)NC(=O)[C@@H](NC(=O)[C@H](CCC(=O)O)NC(C)=O)[C@@H](C)O)C(=O)N[C@@H](CC(=O)O)C(=O)N[C@@H](CC(C)C)C(=O)N[C@@H](Cc1c[nH]c2ccccc12)C(=O)N[C@@H](CCCNC(=N)N)C(=O)N[C@@H](CC(C)C)C(=O)N[C@@H](CC(C)C)C(=O)N[C@@H](CCN=[N+]=[N-])C(=O)N[C@@H](CCC(=O)O)C(=O)N[C@@H](CC(N)=O)C(N)=O` [SP0] showed a Helicity in series [1] of 52%. For the same compound, the share remaining at 6 h, 0.3 mM with α-chymotrypsin amounted to 17%.
Consider `CC(=O)N[C@@H](CCC(=O)O)C(=O)N[C@H](C(=O)N[C@@H](Cc1ccccc1)C(=O)N[C@@]1(C)CCCC=CCCC[C@H](OC(=O)[C@@H](N)CCCCN)c2cn(nn2)CC[C@@H](C(=O)N[C@@H](CCC(=O)O)C(=O)N[C@@H](CC(N)=O)C(N)=O)NC(=O)[C@H](CC(C)C)NC(=O)[C@H](CC(C)C)NC(=O)[C@H](CCCNC(=N)N)NC(=O)[C@H](Cc2c[nH]c3ccccc23)NC(=O)[C@H](CC(C)C)NC(=O)[C@H](CC(=O)O)NC1=O)[C@@H](C)O` [SP1 (B)], for which the Helicity in series [1] stood at 31%.
`CC(=O)N[C@@H](CCC(=O)O)C(=O)N[C@H](C(=O)N[C@@H](Cc1ccccc1)C(=O)N[C@@]1(C)CCCC=CCCC[C@H](OC(=O)[C@H](CCCCN)NC(=O)[C@@H](N)CCCCN)c2cn(nn2)CC[C@@H](C(=O)N[C@@H](CCC(=O)O)C(=O)N[C@@H](CC(N)=O)C(N)=O)NC(=O)[C@H](CC(C)C)NC(=O)[C@H](CC(C)C)NC(=O)[C@H](CCCNC(=N)N)NC(=O)[C@H](Cc2c[nH]c3ccccc23)NC(=O)[C@H](CC(C)C)NC(=O)[C@H](CC(=O)O)NC1=O)[C@@H](C)O` [SP1‐K (B)] registered a Helicity in series [1] of 31%.
Take `CC(=O)N[C@@H](CCC(=O)O)C(=O)N[C@H](C(=O)N[C@@H](Cc1ccccc1)C(=O)N[C@@]1(C)CCCC=CCCC[C@@H](OC(=O)[C@@H](N)CCCCN)c2cn(nn2)CC[C@@H](C(=O)N[C@@H](CCC(=O)O)C(=O)N[C@@H](CC(N)=O)C(N)=O)NC(=O)[C@H](CC(C)C)NC(=O)[C@H](CC(C)C)NC(=O)[C@H](CCCNC(=N)N)NC(=O)[C@H](Cc2c[nH]c3ccccc23)NC(=O)[C@H](CC(C)C)NC(=O)[C@H](CC(=O)O)NC1=O)[C@@H](C)O` [SP2 (A)]: the Helicity in series [1] amounted to 67%.
For `CC(=O)N[C@@H](CCC(=O)O)C(=O)N[C@H](C(=O)N[C@@H](Cc1ccccc1)C(=O)N[C@@]1(C)CCCC=CCCC[C@@H](OC(=O)[C@H](CCCCN)NC(=O)[C@@H](N)CCCCN)c2cn(nn2)CC[C@@H](C(=O)N[C@@H](CCC(=O)O)C(=O)N[C@@H](CC(N)=O)C(N)=O)NC(=O)[C@H](CC(C)C)NC(=O)[C@H](CC(C)C)NC(=O)[C@H](CCCNC(=N)N)NC(=O)[C@H](Cc2c[nH]c3ccccc23)NC(=O)[C@H](CC(C)C)NC(=O)[C@H](CC(=O)O)NC1=O)[C@@H](C)O` [SP2‐K (A)], in series [1], the Helicity is on record as 65%.
In series [1], `CC(=O)N[C@@H](CCC(=O)O)C(=O)N[C@H](C(=O)N[C@@H](Cc1ccccc1)C(=O)N[C@@]1(C)CCCC=CCCC[C@H](OC(=O)[C@@H](N)CCCCN)c2cn(nn2)CC[C@@H](C(=O)N[C@@H](CCC(=O)O)C(=O)N[C@@H](CC(N)=O)C(N)=O)NC(=O)[C@H](CC(C)C)NC(=O)[C@H](CC(C)C)NC(=O)[C@H](CCCNC(=N)N)NC(=O)[C@H](Cc2c[nH]c3ccccc23)NC(=O)[C@H](CC(C)C)NC(=O)[C@H](CC(=O)O)NC1=O)[C@@H](C)O` [SP1 (A)] returned a Helicity of 53%. The fraction remaining at 6 h, 0.3 mM in the series on α-chymotrypsin came out at 82%.
In the case of `CC(=O)N[C@@H](CCC(=O)O)C(=O)N[C@H](C(=O)N[C@@H](Cc1ccccc1)C(=O)N[C@@]1(C)CCCC=CCCC[C@H](OC(=O)[C@H](CCCCN)NC(=O)[C@@H](N)CCCCN)c2cn(nn2)CC[C@@H](C(=O)N[C@@H](CCC(=O)O)C(=O)N[C@@H](CC(N)=O)C(N)=O)NC(=O)[C@H](CC(C)C)NC(=O)[C@H](CC(C)C)NC(=O)[C@H](CCCNC(=N)N)NC(=O)[C@H](Cc2c[nH]c3ccccc23)NC(=O)[C@H](CC(C)C)NC(=O)[C@H](CC(=O)O)NC1=O)[C@@H](C)O` [SP1‐K (A)], the Helicity in series [1] was 55%.
`CC(=O)N[C@@H](CCC(=O)O)C(=O)N[C@H](C(=O)N[C@@H](Cc1ccccc1)C(=O)N[C@@]1(C)CCCC=CCCC[C@@H](OC(=O)[C@H](CCCCN)NC(=O)[C@@H](N)CCCCN)c2cn(nn2)CC[C@@H](C(=O)N[C@@H](CCC(=O)O)C(=O)N[C@@H](CC(N)=O)C(N)=O)NC(=O)[C@H](CC(C)C)NC(=O)[C@H](CC(C)C)NC(=O)[C@H](CCCNC(=N)N)NC(=O)[C@H](Cc2c[nH]c3ccccc23)NC(=O)[C@H](CC(C)C)NC(=O)[C@H](CC(=O)O)NC1=O)[C@@H](C)O` [SP2‐K (B)] returned a Helicity in series [1] of 36%.

What is called fraction remaining is the share of the starting amount still present when the sample was taken.
